Results taken from patent US20240226054A9, “AGENTS AND METHODS FOR PREVENTING AND TREATING SKELETAL MUSCLE DISEASES” (The Regents Of the University of California, priority 2022, published 2024).
“Also recorded” adds a separate entry of the source. Where two headings read alike, the source gives them in different places.

Key:
[1] = system: soleus muscle from the Nav1.4-R669H mouse; format: cell-based
Protocol: (§1) Mouse Model of HypoPP. Knock-in mutant mouse models of HypoPP were previously generated; Type 1 with a missense mutation of the Cav1.1 calcium channel (Cacnals p.R528H) and Type 2 with a missense mutation of the Nav1.4 sodium channel (Scn4a p.R663H) homologous to the p.R669H missense mutation in patients with HypoPP Type 2. Mutant mice have a robust HypoPP phenotype with loss of force and paradoxical depolarization of skeletal muscle in response to a challenge in low extracellular [K^+] (<3 mM) or to intravenous administration of insulin plus glucose.
Ex vivo Contraction Studies. The outcome measure for susceptibility to HypoPP was the peak isometric force of the soleus muscle, in response to a tetanic stimulation, as previously described. In brief, after euthanizing the animal, the extensor digitorum longus (EDL) muscle or the soleus muscle was dissected free and suspended in a tissue bath held at 37° C. […] Muscles were suspended in a bicarbonate-buffered bath that was bubbled continuously with 5% CO2/95% 02 to maintain a pH of 7.4. The standard bath consisted of (in mM): 118 NaCl, 4.75 KCl, 1.18 MgSO4, 2.54 CaCl2), 1.18 NaH2PO4, 10 glucose, and 24.8 NaHCO3. The low-K^+ solution was identical, except for the reduction of KCl to 2 mM by replacement with NaCl. The osmolality of all solutions was 290 mOsm. Retigabine (gift from Prof. M. Taglialatela, Univ. […] The Kv7 inhibitor, XE991 (Sigma-Aldrich), was prepared in as a 100 mM DMSO stock solution and applied to muscle in a […] bath solution.
Electrical stimulation was applied by a pair of platinum wires, oriented perpendicular to the long axis of the soleus muscle. Suprathreshold stimulation (80 mA) was applied as a tetanic burst (40 pulses, 0.4 msec, at 100 Hz), under computer control. All bath solutions contained 0.25 mM D-tubocurarine (Sigma-Aldrich) to prevent any contribution to muscle excitation from motor nerve endings. Muscle force was measured with a stiff strain gain (Forte 25, World Precision Instruments) and digitally sampled at 5 KHz. Muscle contractility was monitored by measuring the peak isometric force every two minutes, and test solutions were applied by complete exchange of the bath solution.
The efficacy of potassium channel openers to prevent the loss of force in HypoPP muscle was assessed by measuring isometric contractions, ex vivo, in both control (4.7 mM) and low extracellular [K^+] (2.0 mM). The HypoPP phenotype is shown for the drug-free responses of the soleus muscle from an Nav1.4-R669H mouse in the left panel of FIG. 1A. The peak isometric force during the tetanic contraction (100 Hz stimulation) was initially 11.7 gm in control [K^+], and then decreased to 7.6 gm (35% decrease) after 4 min. in 2 mM [K^+]. The loss of force is reversible, upon return to 4.7 mM [K^+] (e.g., see FIG. 1B).
A method to quantify the extent of protection from loss of force by retigabine is illustrated in FIG. 2. This example was selected to illustrate the maximum variability in the extent of protection for the oscillations of soleus muscle force within a single trial (compare the responses at 24 min to those at 40 min.). […] The relative protection was calculated from the responses for each pair of soleus muscles from the same mouse serving as an internal control. In almost every trial (22 out of 24), two clear minima occurred during the 30 min. low-K^+ challenge. The relative protection for the retigabine response, defined as 1−(force loss in retigabine)/(force loss in control) was calculated for each of the two minima, and the average value was used as the quantitative estimate for the retigabine protection in that trial. Each soleus muscle was used for only a single trial (i.e. control or retigabine) because cumulative effects and run-down may occur if this long protocol (typically 70 min.) was repeated.

human HypoPP muscle = conditions: 100 mM pinacidil; cited from earlier work
[2] = system: EDL muscle from the Cav1.1-R528H mouse; assay: Ex vivo contraction test, low-K+ challenge, HypoPP EDL muscle; format: cell-based
Protocol: as §1
Ex vivo Contraction Studies. The outcome measure for susceptibility to HypoPP was the peak isometric force of the soleus muscle, in response to a tetanic stimulation, as previously described. In brief, after euthanizing the animal, the extensor digitorum longus (EDL) muscle or the soleus muscle was dissected free and suspended in a tissue bath held at 37° C. […] Muscles were suspended in a bicarbonate-buffered bath that was bubbled continuously with 5% CO2/95% 02 to maintain a pH of 7.4. The standard bath consisted of (in mM): 118 NaCl, 4.75 KCl, 1.18 MgSO4, 2.54 CaCl2), 1.18 NaH2PO4, 10 glucose, and 24.8 NaHCO3. […]
Electrical stimulation was applied by a pair of platinum wires, oriented perpendicular to the long axis of the soleus muscle. […] Muscle force was measured with a stiff strain gain (Forte 25, World Precision Instruments) and digitally sampled at 5 KHz. Muscle contractility was monitored by measuring the peak isometric force every two minutes, and test solutions were applied by complete exchange of the bath solution.
A method to quantify the extent of protection from loss of force by retigabine is illustrated in FIG. 2. […] The relative protection was calculated from the responses for each pair of soleus muscles from the same mouse serving as an internal control. […] The relative protection for the retigabine response, defined as 1−(force loss in retigabine)/(force loss in control) was calculated for each of the two minima, and the average value was used as the quantitative estimate for the retigabine protection in that trial. […]

[3] = system: EDL fibers from the Nav1.4-R669H mouse; assay: Membrane potential measurements (resting potential, microelectrode impalement); format: cell-based
Protocol: Membrane Potential Measurements. The membrane potential was recorded by impalement of superficial fibers from an ex vivo whole mount of the EDL muscle. Long-duration stable recording of the resting potential was achieved by using an orthogonal approach to the fiber with fine-tipped microelectrodes (resistance of 15-20 MW, filled with 3 M KCl). The bath solution was the same as that used for the ex vivo contraction studies, continuously bubbled with 5% CO2/95% O2, with a flow rate of ˜3 ml/min of the 0.3 ml recording chamber.
The impairment of contraction during an episode of HypoPP is caused by sustained depolarization, which inactivates sodium channels and reduces muscle fiber excitability. In HypoPP, ictal depolarization of the resting potential (Vrest) paradoxically occurs in low K^+ that would normally hyperpolarize the membrane from a negative shift of the K^+ Nernst potential (EK). It was tested whether retigabine prevents or reverses this paradoxical depolarization of HypoPP fibers exposed to low K^+. […] Reduction of K^+ to 2 mM or even 1 mM caused hyperpolarization of WT fibers, as expected from the negative shift of EK (FIG. 5A, gray shaded regions). At an extremely low K^+ of 0.5 mM, even WT fibers paradoxically depolarized (magenta region) as previously described. For EDL fibers from the Nav1.4-R669H mouse, the more modest K^+ reductions to 2 mM or 1 mM elicited paradoxical depolarization, which is the membrane potential equivalent of ictal HypoPP. […] These observations support the view that the beneficial effects of retigabine occur by a stabilizing effect on the normally polarized value of Vrest.

[4] = system: pharmacological model of Andersen-Tawil Syndrome (barium blocks Kir potassium channels); assay: Low K challenge in pharmacological model of Andersen-Tawil Syndrome (50 μM barium); format: cell-based; conditions: pre-administration of 10 μM retigabine
Protocol: A pharmacological model of Andersen-Tawil Syndrome (ATS) is created, in vitro, with a low concentration of barium (50 μM), which blocks Kir potassium channels. Kir2.1 is deficient from loss of function mutations of the KCNJ2 gene in ATS.

[5] = system: soleus muscle obtained from the knock-in mutant mouse model of HyperPP; assay: In vitro contraction test, high K challenge, HyperPP soleus muscle; format: cell-based
Protocol: The two paired muscles (left and right) were tested in separate organ baths. […] At 40 min into the study, a high K challenge was performed by exchanging the 4.7 mM K+ bath with one containing 10 mM K+.

Kv7.1 = Kv7.1 (Homo sapiens, UniProt P51787); conditions: cited from earlier work
[6] = cited from earlier work
[7] = system: mouse muscle (mouse models of myotonia); conditions: cited from earlier work
mouse = conditions: 30 mg/kg retigabine; cited from earlier work
rat = conditions: 30 mg/kg retigabine; cited from earlier work
[8] = chronic use as antiepileptic, cited from earlier work

Kv7.1, sequence (P51787 whole entry): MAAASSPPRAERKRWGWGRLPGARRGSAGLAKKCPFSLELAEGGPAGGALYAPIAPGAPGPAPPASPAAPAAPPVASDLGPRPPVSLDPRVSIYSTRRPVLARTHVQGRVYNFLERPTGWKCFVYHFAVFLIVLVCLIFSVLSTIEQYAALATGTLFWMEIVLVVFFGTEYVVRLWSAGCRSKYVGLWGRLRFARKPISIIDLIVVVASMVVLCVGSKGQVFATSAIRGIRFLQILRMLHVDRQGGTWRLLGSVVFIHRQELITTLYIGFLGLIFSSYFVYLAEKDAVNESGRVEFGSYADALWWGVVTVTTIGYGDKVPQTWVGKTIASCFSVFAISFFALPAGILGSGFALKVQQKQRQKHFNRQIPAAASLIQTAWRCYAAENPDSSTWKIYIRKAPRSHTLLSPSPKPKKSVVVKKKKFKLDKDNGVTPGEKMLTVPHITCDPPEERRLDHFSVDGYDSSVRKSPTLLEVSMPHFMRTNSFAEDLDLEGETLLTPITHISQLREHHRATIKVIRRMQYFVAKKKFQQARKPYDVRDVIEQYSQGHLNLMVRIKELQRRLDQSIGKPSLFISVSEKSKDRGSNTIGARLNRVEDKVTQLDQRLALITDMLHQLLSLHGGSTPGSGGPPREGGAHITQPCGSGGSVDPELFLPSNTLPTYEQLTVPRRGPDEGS

## Cc1cc(N2CCc3cc(F)ccc3C2)cc(C)c1NC(=O)CC(C)(C)C [XEN1101, N-[4-(6-fluoro-3,4-dihydro-1H-isoquinolin-2-yl)-2,6-dimethylphenyl]-3,3-dimethylbutanamide]
[1]; XEN1101 10 μM at 10 min
  increase in baseline force: 20%

## CC(N/C(=N\C#N)Nc1ccncc1)C(C)(C)C (centres unmarked) [pinacidil]
[1]; pinacidil pre-treatment
  protection from loss of force in a low-K+ challenge: protects HypoPP muscle from a loss of force
Human HypoPP muscle
  protection against loss of force: protect against loss of force

## CCOC(=O)Nc1ccc(NCc2ccc(F)cc2)cc1N [retigabine, ethyl [2-amino-4-[[(4-fluorophenyl)methyl]amino]phenyl]carbamate]
[1]; 1 μM retigabine pre-treatment
  protection from low-K+ induced loss of force: substantial protection
[1]; 2 μM retigabine pre-treatment
  loss of peak force during 30 min challenge with 2 mM K+: markedly attenuated the loss of peak force
[1]; 10 μM retigabine applied during 2 mM K+
  trials with enhanced recovery: 5 of 6
[1]; 10 μM retigabine in 2 mM K+, soleus
  relative peak force, sustained value after recovery: 0.83
[1]; 10 μM retigabine pre-treatment, K+ 4.7 mM to 2 mM
  protection from low-K+ induced loss of force: completely suppressed any detectable loss of force
[1]; 10 μM retigabine pre-treatment, representative responses FIG. 1B
  relative force in the 2 mM [K+] challenge: > 0.85
[1]; 10 μM retigabine, still in 2 mM K+ bath, n=3
  improved level of tetanic force in retigabine, of baseline: 83.2%
[1]; 0.1 to 20 mM, Nav1.4-R669H soleus
  relative force before the low-K+ challenge on addition of retigabine: not affected
[1]; bath containing 10 μM retigabine
  baseline force in 4.7 mM K+: unchanged
[1]; up to 20 μM retigabine, 400 msec tetanic contraction every two minutes for two hrs
  impairment of peak isometric force: no impairment
[2]; 10 μM retigabine in 2 mM K+, EDL
  relative peak force, sustained value after recovery: 0.83
[2]; 10 μM retigabine, vs contralateral control
  recovery from on-going loss of force in low K+: Rescue; also recorded: induced a recovery of relative peak force
[2]; 0.1 to 20 mM, Cav1.1-R528H EDL
  relative force before the low-K+ challenge on addition of retigabine: not affected
[3]; 4.7 K+, retigabine added
  Vrest of normally polarized muscle fibers: does not affect Vrest
[3]; retigabine added while low K+ unchanged
  resting potential of paradoxically depolarized HypoPP fibers (rescue): repolarized to the normal Vrest; also recorded: induced fiber repolarization
[3]; retigabine applied before low K+ (1.0 or 2.0 mM)
  paradoxical depolarization of HypoPP fibers during low K+ challenge (protection): prevented the paradoxical depolarization
[4]
  prevention of loss of muscle force with a low K challenge (2 mM): effective a preventing the loss of muscle force
[5]; 10 μM retigabine pre-treatment, 10 mM K+ challenge
  attenuation of the loss of force: about 50%
[5]; 10 μM retigabine, 4.7 mM K+
  maximal force after retigabine before challenge (relative): about 1.0
[5]; retigabine (10 μM)
  prevention of loss of force in HyperPP model: partially effective
[5]; retigabine exposed muscle
  recovery of force on return of bath K+ to 4.7 mM: full recovery of force
Kv7.1
  sensitivity of Kv7.1 to retigabine relative to Kv7.2-Kv7.5 (fold less sensitive): 100 fold
[6]; assumption for unbound fraction
  protein binding (assumed): 80%
[6]; single 100 mg oral dose
  Cmax: 390 ng/mL
  half-life: 8 h
[7]; 20 mM retigabine
  fiber input resistance, resting potential or action potential properties (current-clamp): did not detect a change
[7]; 20 or 30 mM retigabine
  reduction of ex vivo tetanic force: did not report a reduction
[7]; low-dose retigabine
  after-discharges in mouse models of myotonia: suppresses after-discharges
mouse
  force with tetanic contractions lasting seconds: loss of force
rat
  force with tetanic contractions lasting seconds: loss of force
[8]
  side effects leading to discontinuation: skin discoloration
[8]; listed as Retigabine
  side effects leading to discontinuation: skin discoloration and eye abnormalities
